From US20230355599A1, “BIOMARKERS FOR CBL, AND COMPOSITIONS AND METHODS FOR THEIR USE” (NURIX THERAPEUTICS, INC., priority 2022, published 2023)

Assays:
phosphorylated HS1 = assay: Phosphorylated HS1 in circulating CD8+ T cells of patients, Phase 1 trial (flow cytometry); format: in vivo, human
Description: (§1) Pharmacodynamic analysis of the proximal biomarker, phosphorylated HS1 is assessed in circulating CD8^+ T cells from patients that are being administered doses ranging from 5 to 50 mg of Compound 23 once daily and is being used to assess target engagement of Compound 23 as part of the dose/exposure-response profile. Whole blood is collected longitudinally and added into two types of TruCulture (Myriad) tubes. One tube contains media, and the second tube contains anti-CD3 and anti-CD28, which are subsequently crosslinked to induce cellular stimulation for pharmacodynamic analysis. Phosphorylated HS1 is assessed by flow cytometry pre and post dose on Cycle 1 Day 1 (C1D1) and Cycle 2 Day 1 (C2D1) to characterize single/multiple dose PD profiles.
(§2) % Maximal phosphorylated signal and % AUC are two commonly used parameters to assess the pharmacodynamic effects of drugs.
(§3) % Maximal phosphorylated signal refers to the maximum amount of a specific protein that becomes phosphorylated (i.e., modified by the addition of a phosphate group) in response to a drug or other stimulus. This parameter is often used to measure the activation of signaling pathways that are important for various cellular processes, including cell growth and differentiation, immune response, and metabolism.
(§4) % AUC, on the other hand, refers to the area under the curve (AUC) over time, expressed as a percentage of the maximum possible AUC. In summary, both % maximal phosphorylated signal and % AUC are useful parameters to assess the pharmacodynamic effects of drugs. % maximal phosphorylated signal is a measure of the activation of signaling pathways, while % AUC reflects the duration of the effect on PD signals. Both parameters can be used to evaluate the potency and duration of a drug's pharmacodynamic effects.

phosphorylated PLCγ2 = assay: Phosphorylated PLCγ2 in circulating CD8+ T cells of patients, Phase 1 trial (flow cytometry); format: in vivo, human
Description: [The procedure below names another target; the source lists this target under the same test.] as §1, §2, §3, §4

[1] = 5 mg once daily, n=1, cycle 1, day 1
[2] = 15 mg once daily, n=12, cycle 1, day 1
[3] = 25 mg once daily, n=7, cycle 1, day 1
[4] = 50 mg once daily, n=2, cycle 1, day 1

C[C@H]1CCCN(Cc2cc3c(c(C(F)(F)F)c2)CN(c2cccc([C@]4(c5nncn5C)C[C@@H](C)C4)c2)C3=O)C1 [Compound 23] was tested, and the “% of phosphorylated HS1 expressing CD8+ T cells (maximal)” value (phosphorylated HS1; [1]) was 35%, the “phosphorylated HS1 AUC” value (phosphorylated HS1; [1]) was 578 and the “% of phosphorylated HS1 expressing CD8+ T cells (maximal)” value (phosphorylated HS1; [2]) was 46%. For the same compound, the “phosphorylated HS1 AUC” value (phosphorylated HS1; [2]) was 787, the “% of phosphorylated HS1 expressing CD8+ T cells (maximal)” value (phosphorylated HS1; [3]) was 53% and the “phosphorylated HS1 AUC” value (phosphorylated HS1; [3]) was 876. The “% of phosphorylated HS1 expressing CD8+ T cells (maximal)” value (phosphorylated HS1; [4]) was 52%, the “phosphorylated HS1 AUC” value (phosphorylated HS1; [4]) was 1055 and the “trend of AUC % pHS1 with PK” value (phosphorylated HS1; Pearson correlation with PK parameters (AUC and CMAX), statistically significant slope p=0.02) was “positive trend”. For the same compound, the “trend of maximal or AUC % pPLCγ2 with PK” value (phosphorylated PLCγ2) was “No apparent trend”, the “% of phosphorylated PLCγ2 expressing CD8+ T cells (maximal)” value (phosphorylated PLCγ2; [1]) was 56% and the “phosphorylated PLCγ2 AUC” value (phosphorylated PLCγ2; [1]) was 1003. The “% of phosphorylated PLCγ2 expressing CD8+ T cells (maximal)” value (phosphorylated PLCγ2; [2]) was 81%, the “phosphorylated PLCγ2 AUC” value (phosphorylated PLCγ2; [2]) was 1616 and the “% of phosphorylated PLCγ2 expressing CD8+ T cells (maximal)” value (phosphorylated PLCγ2; [3]) was 85%. The “phosphorylated PLCγ2 AUC” value (phosphorylated PLCγ2; [3]) was 1807, the “% of phosphorylated PLCγ2 expressing CD8+ T cells (maximal)” value (phosphorylated PLCγ2; [4]) was 75% and the “phosphorylated PLCγ2 AUC” value (phosphorylated PLCγ2; [4]) was 1706.
